Results taken from patent US6734171B1, “Methods for encapsulating nucleic acids in lipid bilayers” (Inex Pharmaceuticals Corp., priority 1997, dated 2004).

Tests used:
Unseparated spleen cells = test: Cell proliferation assay (3H-thymidine) of spleen cells stimulated in vitro; format: cell-based, Balb/c mice; conditions: spleen cells of Diluent treated mice; label = in vitro stimulation
Description: Mice, 12 per group, were injected intravenously (i.v.) with TCS formulations as described below. In this study four injections were given at intervals of seven days over a period of five weeks (Table 4). Group A was injected with INEX324 expressing LacZ reporter gene on day 0, 7 and 14 (150 μl per mouse of INEX324-LacZ, 75 μg DNA). Two weeks after the last LacZ injection, mice were injected with INEX324-Luc (150 μl per injection, 80 μg DNA). To evaluate the immunogenicity of INEX324 lipid, Group B received three injections of INEX324 empty vesicles (150 μl per mouse) and one injection of INEX324-Luc two weeks later. Group C served as a base-line control, mice were given 150 μl of diluent at each time point. Mice from Group D received three diluent injections, followed by a single injection of INEX324-Luc, and served as a positive control for luciferase expression. Three mice from each group were sacrificed at 18 hours after each injection, or 24 hours prior to the following injection. Blood was collected and the serum samples were analyzed for the presence of antibodies specific for β-galactosidase using an ELISA assay. […] Splenocytes were monitored for expression, of differentiation (CD4, CD8, CD22, CD11b) and activation (CD86, MHC-II, Ly-6A/E, CD54 and CD25) markers. […]
Unseparated spleen cells were tested in vitro for their ability to proliferate upon re-stimulation with the empty INEX324 vesicles, INEX324-LacZ formulation, LacZ, transgene product (r-β-galactosidase), or with polyclonal activators for T (Concanavalin A, Con A) and […] (Lipopolysaccharide, LPS). […] An isolated cell suspension was separated from debris by removing the supernatant and the cell number was quantified using a Coulter counter (Coulter Instruments, Miami, Fla.). […] The levels of incorporated radioactivity were measured in a scintillation counter. ^3H-thymidine incorporation is expressed total ^3H-incorporation (DPMs), or as a mean percentage (±SD) of media control and plotted versus lipid concentration values.

Splenocytes = test: Cytokine release (IL-2, IL-4 ELISA) of splenocytes stimulated in vitro; format: cell-based, Balb/c mice; conditions: spleen cells of Diluent treated mice; label = in vitro stimulation
Description: Splenocytes (1×10^6 cells/ml) were either nonstimulated or cultured in the presence of various concentrations of either empty INEX324 vesicles, or INEX324-LacZ formulation at different times after culture initiation (24 h and 48 h). The levels of cytokine in the cell culture supernatant (Interleukin-2 and Interleukin-4) were determined by an ELISA assasy (below).
Cytokine-specific ELISA assays were performed using the protocol and specific anti-interleukin antibodies provided by reagent mini-kit (Endogen, Woburn MA). Briefly, Immuno-module (F8-maxisorb) 96-well plates were coated overnight with anti-IL-2, or anti-IL-4 antibody. Plates were washed with PBS-Tween 20 (0.05%) and blocked with PBS-Tween 20-BSA (2%) for 1 hour at room temperature. Supernatant samples and standards (diluted in blocking buffer) were added and allowed to incubate overnight. Plates were washed and biotinylated anti-IL-2 or anti-IL-4 antibody was added. After 2 hours incubation, plates were washed and HRP-Extravidin, followed by TMB, was added to each well. Plates were read on a plate reader at OD450nm. The amount of released cytokine was determined by comparing the O.D. of test supernatants to a standard curve of serially diluted cytokine standards.

| Substance | 3H-incorporation (Unseparated spleen cells) [DPMs] | Cytokine release IL-2 (Splenocytes) [OD450] | Cytokine release IL-4 (Splenocytes) [OD450] |
| --- | --- | --- | --- |
| Concanavalin A [ConA] | 215542 | 0.615 | 0.138 |
| Lipopolysaccharide [LPS] | 35676 | – | – |
| r-β-gal: transgene product (r-β-galactosidase) | 18336 | 0.059 | 0.103 |
